# US8975400B2, “2,3-dihydroimidazo[1, 2-c] pyrimidin-5(1 H)-one compounds use as LP-PLA2 inhibitors” (Glaxo Group Limited, priority 2011, dated 2015)
# Where a name gives a salt, the structure may show the parent alone.
# Biological target: T1, recombinant human Lp-PLA2 (Homo sapiens, UniProt Q13093)
# T1 sequence (Q13093 22-441): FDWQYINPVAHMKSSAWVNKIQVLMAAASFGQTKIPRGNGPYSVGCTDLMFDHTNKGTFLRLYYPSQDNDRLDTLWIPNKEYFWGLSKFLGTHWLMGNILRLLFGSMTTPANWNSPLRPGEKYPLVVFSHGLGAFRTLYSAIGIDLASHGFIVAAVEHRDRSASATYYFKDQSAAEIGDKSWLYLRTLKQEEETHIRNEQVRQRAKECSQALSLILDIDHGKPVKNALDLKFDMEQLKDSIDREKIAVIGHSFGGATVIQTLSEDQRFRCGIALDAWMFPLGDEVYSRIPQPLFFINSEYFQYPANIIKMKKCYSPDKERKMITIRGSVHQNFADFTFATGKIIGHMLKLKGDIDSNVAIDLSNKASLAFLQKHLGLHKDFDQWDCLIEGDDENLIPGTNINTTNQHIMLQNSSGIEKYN
# Assay: Recombinant human Lp-PLA2 assay (rhLp-PLA2, PED6 assay)
# Assay type: biochemical
# Conditions: recombinant human Lp-PLA2, PED6 substrate; upper limit for pIC50 in this assay is 9.3
# Source text: (1) Recombinant Human Lp-PLA2 Assay (rhLp-PLA2) (Also Referred to as “PED6” Assay)
# N-((6-(2,4-dinitrophenyl)amino)-hexanoyl)-2-(4,4-difluoro-5,7-dimethyl-4-bora-3a,4a-diaza-s-indacene-3-pentanoyl)-1-hexadecanoyl-sn-glycero-3-phosphoethanolamine, triethylammonium salt (PED6) is a commercially available fluorescently-labeled phospholipid, which is commercially available from Invitrogene and Molecular Probes. There is a quenching […] and a Bodipy fluorescein (FL) group in the sn2 position. Upon cleavage with Lp-PLA2, the Bodipy FL group is liberated and then may result in an increase in fluorescence. Inhibitors of Lp-PLA2 therefore prevent this cleavage and no fluorescent increase is observed.
# The PED6 assay was run as an unquenched 10 μL assay. The source plate containing the compounds to be tested was prepared by making 1:3 (by volume) serial dilution of the compounds within DMSO on 384-well microplate. Then, 0.01 μL of the compounds on compound source plate were transferred into 384 well Greiner 784076 (black) plates using ECHO liquid dispenser. 5 µL of recombinant human Lp-PLA2 enzyme (4 nM (or 110 pM) rhLp-PLA2 in assay buffer of 50 mM HEPES, pH 7.4, 150 mM NaCl, 1 mM CHAPS) was added to each well of the plate. Plates were centrifuged for 10 sec at 500 rpm. After 30 minutes preincubation, 5 µL of substrate (4 μM (or 5 μM) PED6 [from 5 mM DMSO stock] in assay buffer of 50 mM HEPES, pH 7.4, 150 mM NaCl, 1 mM CHAPS) was added to 384 well Greiner 784076 (black) plates. Plates were centrifuged for 10 sec at 500 rpm. The plate was covered to protect it from light and incubated for 20 min at room temperature. The plates were read for fluorescence intensity at ex: 480/em: 540 using ViewLux microplate imager for Envision spectrofluroimeters pIC50 data, curve and QC analysis was conducted by using XL fit module in Excel.
# The compounds described below were tested generally according to the PED6 assay described above.
row,IC50,Compound
1,≤ 10 nM,"CN1CCn2c1cc(OCc1ccc(F)c(Oc3cccc(Cl)c3)c1)nc2=O [Example E16, 7-((3-(3-chlorophenoxy)-4-fluorobenzyl)oxy)-1-methyl-2,3-dihydroimidazo[1,2-c]pyrimidin-5(1H)-one]"
2,≤ 10 nM,"N#Cc1cc(COc2cc3n(c(=O)n2)CCN3)ccc1Oc1cccc(C(F)(F)F)c1 [Example 112, 5-(((5-oxo-1,2,3,5-tetrahydroimidazo[1,2-c]pyrimidin-7-yl)oxy)methyl)-2-(3-(trifluoromethyl)phenoxy)benzonitrile]"
3,≤ 10 nM,"CN1CCn2c1cc(OCc1ccc(Oc3ccc(F)cc3)c(C#N)c1)nc2=O [Example E22, 2-(4-fluorophenoxy)-5-(((1-methyl-5-oxo-1,2,3,5-tetrahydroimidazo[1,2-c]pyrimidin-7-yl)oxy)methyl)benzonitrile]"
4,≤ 10 nM,"O=c1nc(OCc2ccc(Oc3ccc(Cl)c(Cl)c3)c(F)c2)cc2n1CCN2 [Example 98, 7-((4-(3,4-dichlorophenoxy)-3-fluorobenzyl)oxy)-2,3-dihydroimidazo[1,2-c]pyrimi-din-5(1H)-one]"
5,≤ 10 nM,"CN1CCn2c1cc(OCc1cc(F)c(Oc3ccc(F)cc3)c(F)c1)nc2=O [Example E12, 7-((3,5-difluoro-4-(4-fluorophenoxy)benzyl)oxy)-1-methyl-2,3-dihydroimidazo[1,2-c]pyrimidin-5(1H)-one]"
6,≤ 10 nM,"CN1CCn2c1cc(OCc1ccc(Oc3cc(F)cc(F)c3)c(F)c1)nc2=O [Example E43, 7-((4-(3,5-difluorophenoxy)-3-fluorobenzyl)oxy)-1-methyl-2,3-dihydroimidazo[1,2-c]pyrimidin-5(1H)-one, trifluoroacetic acid salt]"
7,≤ 10 nM,"O=c1nc(OCc2cc(F)c(Oc3ccc(F)cc3)c(F)c2)cc2n1CCN2 [Example E74, 7-((3,5-difluoro-4-(4-fluorophenoxy)benzyl)oxy)-2,3-dihydroimidazo[1,2-c]pyrimidin-5(1H)-one]"
8,≤ 10 nM,"CN1CCn2c1cc(OCc1ccc(Oc3cccc(C#N)c3)c(F)c1)nc2=O [Example E63, 3-(2-fluoro-4-(((1-methyl-5-oxo-1,2,3,5-tetrahydroimidazo[1,2-c]pyrimidin-7-yl)oxy)methyl)phenoxy)benzonitrile, trifluoroacetic acid salt]"
9,≤ 1 nM,"O=c1nc(OCc2ccc(Oc3cc(F)cc(C(F)(F)F)c3)c(F)c2)cc2n1CCN2 [Example 151, 7-((3-fluoro-4-(3-fluoro-5-(trifluoromethyl)phenoxy)benzyl)oxy)-2,3-dihydroim-idazo[1,2-c]pyrimidin-5(1H)-one]"
10,≤ 10 nM,"O=c1nc(OCc2ccc(Oc3cccc(C(F)(F)F)c3)c(Cl)c2)cc2n1CCN2 [Example E61, 7-((3-chloro-4-(3-(trifluoromethyl)phenoxy)benzyl)oxy)-2,3-dihydroimidazo[1,2-c]pyrimidin-5(1H)-one]"

# Biological target: T2, Lp-PLA2 in human plasma (Homo sapiens, UniProt Q13093)
# T2 construct: This assay may detect the activity of Lp-PLA2 in human plasma; from tissue; host or cells: pooled human plasma
# T2 sequence (Q13093 22-441): T1 sequence (Q13093 22-441)
# Assay: Lp-PLA2 human plasma assay (Thio-PAF assay)
# Assay type: biochemical
# Conditions: pooled human plasma, 2-thio-PAF substrate; read-out: pIC50 in the thio-PAF assay (converted)
# Source text: (3) Lipoprotein-Associated Phospholipase A2 (Lp-PLA2) Human Plasma Assay (Also Referred to as “Thio-PAF Assay”)
# The human plasma assay utilizes a thioester analog of PAF (phosphatidylcholine), where hydrolysis yields to the formation of a phospholipid containing a free thiol group. The amount of thiol is quantitated continuously by reacting with CPM (7-diethylamino-3-(4′-maleimidylphenyl)-4-methylcoumarin), a maleimide which increases in fluoresence after Michael addition of thiols. This assay may detect the activity of Lp-PLA2 in human plasma, as determined by specific inhibition by Lp-PLA2 inhibitors.
# The thio-PAF assay was run as a quenched 15 μL assay. Compounds source plate was prepared by making 1:3 (by volume) serial dilution of the compounds into pure DMSO on 384-well microplate. 0.01 μL of compounds on compound source plate were transferred to 384 well Greiner 784076 (black) low-volume plates by ECHO liquid dispenser. 8 μL pooled human plasma, which was previously aliquoted and frozen, was added. Plates were centrifuged for 10 sec at 500 rpm. After 30 minutes preincubation, 2 μL of substrate solution comprising 2.5 mM 2-thio-PAF [from ethanol stock], 32 μM CPM [from a DMSO stock] and 3.2 mM NEM (N-ethylmaleimide) [made fresh daily in DMSO] in assay buffer of 50 mM HEPES, pH 7.4, 150 mM NaCl, 1 mM CHAPS was added to 384 well Greiner 784076 (black) low-volume plates by BRAVO liquid handling station. After 2 mins, reaction was quenched with 5 μL of 5% aqueous trifluoroacetic acid (TFA). Plates were covered to protect from light and incubated for 40 min at room temperature. Plates were read at ex: 380/em: 485 using-Envision microplate reader. pIC50 data, curve and QC analysis was conducted by using XLFit module in Excel.
row,IC50,Compound
1,≤ 1000 nM,"CN1CCn2c1cc(OCc1ccc(Oc3cncc(C#N)c3)c(C#N)c1)nc2=O [Example 138, 5-(2-cyano-4-(((l-methyl-5-oxo-1,2,3,5-tetrahydroimidazo[1,2-c]pyrimidin-7-yl)oxy)methyl)phenoxy)nicotinonitrile]"
2,≤ 1000 nM,"CC(C)N1CCn2c1cc(OCc1ccc(F)c(F)c1)nc2=O [Example E47, 7-((3,4-difluorobenzyl)oxy)-1-isopropyl-2,3-dihydroimidazo[1,2-c]pyrimidin-5(1H)-one, trifluoroacetic acid salt]"
3,≤ 1000 nM,"CN1CCn2c1cc(OCc1ccc(F)c(F)c1)nc2=O [Example E7, 7-((3,4-difluorobenzyl)oxy)-1-methyl-2,3-dihydroimidazo[1,2-c]pyrimidin-5(1H)-one]"
4,≤ 1000 nM,"CN1CCn2c1cc(OCc1ccc(Oc3ccc(F)c(Cl)c3)c(C#N)c1)nc2=O [Example E39, 2-(3-chloro-4-fluorophenoxy)-5-(((1-methyl-5-oxo-1,2,3,5-tetrahydroimidazo[1,2-c]pyrimidin-7-yl)oxy)methyl)benzonitrile, trifluoroacetic acid salt]"
5,≤ 1000 nM,"CN1CCn2c1cc(OCc1ccc(F)c(C#N)c1)nc2=O [Example 146, 2-fluoro-5-(((l-methyl-5-oxo-1,2,3,5-tetrahydroimidazo[1,2-c]pyrimidin-7-yl)oxy)methyl)benzonitrile]"
6,≤ 1000 nM,"Cc1ccc(Oc2ccc(COc3cc4n(c(=O)n3)CCN4C)cc2C#N)cn1 [Example E56, 5-(((1-methyl-5-oxo-1,2,3,5-tetrahydroimidazo[1,2-c]pyrimidin-7-yl)oxy)methyl)-2-((6-methylpyridin-3-yl)oxy)benzonitrile, trifluoroacetic acid salt]"
7,≤ 1000 nM,"CN1CCn2c1cc(OCc1ccc(Oc3cncc(F)c3)c(C#N)c1)nc2=O [Example 137, 2-((5-fluoropyridin-3-yl)oxy)-5-(((1-methyl-5-oxo-1,2,3,5-tetrahydroimidazo[1,2-c]pyrimidin-7-yl)oxy)methyl)benzonitrile]"
8,≤ 1000 nM,"CN1CCn2c1cc(OCc1cc(F)c(F)c(F)c1)nc2=O [Example E17, 1-methyl-7-((3,4,5-trifluorobenzyl)oxy)-2,3-dihydroimidazo[1,2-c]pyrimidin-5(1H)-one]"
9,≤ 1000 nM,"CN1CCn2c1cc(OCc1ccc(Oc3cncc(C#N)c3)c(F)c1)nc2=O [Example 141, 5-(2-fluoro-4-(((1-methyl-5-oxo-1,2,3,5-tetrahydroimidazo[1,2-c]pyrimidin-7-yl)oxy)methyl)phenoxy)nicotinonitrile]"
10,≤ 1000 nM,"O=c1nc(OCc2ccc(F)c(F)c2)cc2n1CCN2 [Example E68, 7-((3,4-difluorobenzyl)oxy)-2,3-dihydroimidazo[1,2-c]pyrimidin-5(1H)-one]"
11,≤ 1000 nM,"N#Cc1cccc(COc2cc3n(c(=O)n2)CCN3)c1 [Example E60, 3-(((5-oxo-1,2,3,5-tetrahydroimidazo[1,2-c]pyrimidin-7-yl)oxy)methyl)benzonitrile]"
12,≤ 1000 nM,"CN1CCn2c1cc(OCc1ccc(Oc3ccc(C#N)nc3)c(C#N)c1)nc2=O [Example 108, 5-(2-cyano-4-(((1-methyl-5-oxo-1,2,3,5-tetrahydroimidazo[1,2-c]pyrimidin-7-yl)oxy)methyl)phenoxy)picolinonitrile]"
13,≤ 1000 nM,"CN1CCn2c1cc(OCc1ccc(Oc3cnc(C(F)(F)F)nc3)c(C#N)c1)nc2=O [Example E31, 5-(((l-methyl-5-oxo-1,2,3,5-tetrahydroimidazo[1,2-c]pyrimidin-7-yl)oxy)methyl)-2-((2-(trifluoromethyl)pyrimidin-5-yl)oxy)benzonitrile]"
14,≤ 1000 nM,"CN1CCn2c1cc(OCc1cccc(C#N)c1)nc2=O [Example E33, 3-(((1-methyl-5-oxo-1,2,3,5-tetrahydroimidazo[1,2-c]pyrimidin-7-yl)oxy)meth-yl)benzonitrile]"
